According to PubChem BioAssay (NCI):
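Assay format: 96-well plates, 48-hour exposure. TGI marks complete inhibition of growth.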

Columns and labels:
Assay in all cases: growth of human tumour cells (NCI), 48 h
[1] = test system: HCT-15 colon
[2] = test system: SK-OV-3 ovarian
[3] = test system: HOP-62 NSCLC
[4] = test system: RPMI-8226 leukemia
[5] = test system: MCF7 breast
[6] = test system: CAKI-1 renal
[7] = test system: SK-MEL-2 melanoma
[8] = test system: CCRF-CEM leukemia
[9] = test system: EKVX NSCLC
[10] = test system: UACC-62 melanoma
[11] = test system: KM12 colon
[12] = test system: MDA-MB-231 breast
[13] = test system: NCI-H226 lung
[14] = test system: HT29 colon
[15] = test system: LOX IMVI melanoma
[16] = test system: M14 melanoma
[17] = test system: A549 NSCLC
[18] = test system: COLO 205 colon
[19] = test system: OVCAR-4 ovarian
[20] = test system: SK-MEL-5 melanoma
[21] = test system: MALME-3M melanoma
[22] = test system: IGROV1 ovarian
[23] = test system: TK-10 renal
[24] = test system: RXF 393 renal
[25] = test system: SF-295 CNS
[26] = test system: SW-620 colon
[27] = test system: OVCAR-3 ovarian
[28] = test system: MDA-MB-435
[29] = test system: HCC-2998 colon
[30] = test system: SN12C renal
[31] = test system: UACC-257 melanoma
[32] = test system: HS 578T breast
[33] = test system: ACHN renal
[34] = test system: HCT-116 colon
[35] = test system: T-47D breast
[36] = test system: 786-0 renal
[37] = test system: SNB-75 CNS
[38] = test system: OVCAR-5 ovarian
[39] = test system: DU-145 prostate
[40] = test system: UO-31 renal
[41] = test system: NCI-H522 lung
[42] = test system: NCI-H23 lung
[43] = test system: NCI-H460 lung
[44] = test system: OVCAR-8 ovarian
[45] = test system: SF-539 CNS
[46] = test system: SK-MEL-28 melanoma
[47] = test system: A498 renal
[48] = test system: SF-268 CNS
[49] = test system: U251 CNS
[50] = test system: PC-3 prostate
[51] = test system: HL-60(TB) leukemia
[52] = test system: BT-549 breast
[53] = test system: NCI/ADR-RES ovarian

Measured: TGI

NC(N)=Nc1ccc(CC(N)C(=O)NCC(=O)C(CC(=O)O)c2ncc(NC(=O)C(F)(F)F)o2)cc1 (stereo not drawn)
> 25 µM: [1] | [2] | [3] | [4] | [5] | [6] | [7] | [8] | [9] | [10] | [11] | [12] | [13] | [14] | [15] | [16] | [17] | [18] | [19] | [20] | [21] | [22] | [23] | [24] | [25] | [26] | [27] | [28] | [29] | [30] | [31] | [32] | [33] | [34] | [35] | [36] | [37] | [38] | [39] | [40] | [41] | [42] | [43] | [44] | [45] | [46] | [47] | [48] | [49] | [50] | [51] | [52] | [53]
